SMILES strings stand for the structures. ± gives the standard deviation of the reports.

In the case of `*c1ccc2c(c1)C(CCCCCCCC)(CCCCCCCC)c1cc(*)ccc1-2` (repeat unit) [poly(9,9-dioctylfluorene)], the glass transition temperature amounted to 71.00 ± 10 °C.
Molecule `*OC(C)C(*)=O` (repeat unit) [poly(l - lactic acid)] returned a glass transition temperature of 51.4 ± 43 °C.
`*CC(*)OC(C)=O` (repeat unit) [poly(vinyl acetate)] displayed a glass transition temperature of 40.92 ± 13 °C.

The source holds these as a separate data set.
Molecule `*Oc1ccc(C(c2ccc(Oc3ccc4c(c3)C(=O)N(CCCCN3C(=O)c5ccc(*)cc5C3=O)C4=O)cc2)(C(F)(F)F)C(F)(F)F)cc1` (repeat unit) displayed a glass transition temperature of 180.00 °C.
Same read-out and setting: the result for `*Oc1ccc(Sc2ccc(Oc3ccc4c(c3)C(=O)N(c3cc(N5C(=O)c6ccc(*)cc6C5=O)cc(C(F)(F)F)c3)C4=O)cc2)cc1` (repeat unit) reads 218.00 °C; that for `*Sc1ccc2c(c1)C(=O)N(c1ccc(Oc3ccc4ccccc4c3-c3c(Oc4ccc(N5C(=O)c6ccc(*)cc6C5=O)cc4C(F)(F)F)ccc4ccccc34)c(C(F)(F)F)c1)C2=O` (repeat unit), 273.00 °C.
On the same count and under the same terms, the result for `*C(=O)c1cccc(Cc2ccc3c(c2)C(=O)N(c2cc(N4C(=O)c5ccc(*)cc5C4=O)cc(C(F)(F)F)c2)C3=O)c1` (repeat unit) reads 253.00 °C; that for `*C(=O)Nc1ccc2ccccc2c1-c1c(NC(=O)c2ccc3c(c2)C(=O)N(c2ccc(Oc4ccc(N5C(=O)c6ccc(*)cc6C5=O)cc4)cc2)C3=O)ccc2ccccc12` (repeat unit), 287.80 °C; that for `*C(=O)c1ccc2c(c1)C(=O)N(c1ccc(C)c(N3C(=O)c4ccc(*)cc4C3=O)c1C)C2=O` (repeat unit), 384.00 °C.
Same read-out and setting: the result for `*Sc1cccc2c1C(=O)N(c1cc(Cc3ccc(N4C(=O)c5cccc(*)c5C4=O)c(C)c3)ccc1C)C2=O` (repeat unit) reads 274.00 °C.
For the molecule `*C1=C(Cl)C(=O)N(c2ccc(Cc3ccc(N4C(=O)C(Cl)=C(Oc5ccc(*)cc5)C4=O)cc3)cc2)C1=O` (repeat unit), the glass transition temperature was found to be 192.00 °C.
For `*Sc1cccc2c1C(=O)N(c1ccc(Oc3ccc(Oc4ccc(N5C(=O)c6cccc(*)c6C5=O)cc4)cc3)cc1)C2=O` (repeat unit), the glass transition temperature was determined as 250.00 °C.
Take `*Oc1cccc(Oc2ccc(Oc3ccc4c(c3)C(=O)N(c3ccc(Oc5cccc(Oc6ccc(N7C(=O)c8ccc(*)cc8C7=O)cc6)c5)cc3)C4=O)cc2)c1` (repeat unit): the glass transition temperature stood at 184.00 °C.
On the same count and under the same terms, the result for `*Oc1cccc(Oc2ccc(Oc3cccc4c3C(=O)N(c3ccc(Oc5cccc(Oc6ccc(N7C(=O)c8cccc(*)c8C7=O)cc6)c5)cc3)C4=O)cc2)c1` (repeat unit) reads 198.00 °C; that for `*Oc1cccc(Sc2ccc(Oc3cccc4c3C(=O)N(c3ccc(Oc5cccc(Oc6ccc(N7C(=O)c8cccc(*)c8C7=O)cc6)c5)cc3)C4=O)cc2)c1` (repeat unit), 230.00 °C; that for `*Oc1ccc2c(c1)C(=O)N(c1ccc(Sc3ccc(N4C(=O)c5ccc(*)cc5C4=O)cc3)cc1)C2=O` (repeat unit), 269.00 °C.
For the molecule `*Oc1cccc(Oc2ccc(Oc3ccc4c(c3)C(=O)N(c3cccc(N5C(=O)c6ccc(*)cc6C5=O)c3)C4=O)cc2)c1` (repeat unit), the glass transition temperature worked out at 227.00 °C.
In turn, `*Oc1cccc(Sc2ccc(Oc3ccc4c(c3)C(=O)N(c3cccc(N5C(=O)c6ccc(*)cc6C5=O)c3)C4=O)cc2)c1` (repeat unit) gave a glass transition temperature of 209.00 °C.

For the origin of these results see the PolyMetriX glass transition set.
